Measured values as given in ChEMBL document CHEMBL1150923, “A new cacospongionolide inhibitor of human secretory phospholipase A2 from the Tyrrhenian sponge Fasciospongia cavernosa and absolute configuration of cacospongionolides” (J Nat Prod, 1998).
Values after ≈ are worked out from the molar mass of the structure shown.

Key:
[1] = Cytotoxicity against human neutrophils by MTT assay; assay type: cell-based; settings: neutrophil
[2] = target: T1, Phospholipase A2, membrane associated (Homo sapiens, UniProt P14555); assay: Inhibition of human synovial group2 sPLA2 by liquid scintillation counting
T1 sequence (P14555 whole entry): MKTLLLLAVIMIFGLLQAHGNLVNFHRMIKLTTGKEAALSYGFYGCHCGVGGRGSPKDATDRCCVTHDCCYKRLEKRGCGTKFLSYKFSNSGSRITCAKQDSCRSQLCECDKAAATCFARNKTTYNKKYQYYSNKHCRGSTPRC

[3] = Inhibition of pig pancreatic group1 sPLA2 at 10 uM by liquid scintillation counting; set-up: species or system Sus scrofa
[4] = Inhibition of pig pancreatic group1 sPLA2 by liquid scintillation counting; set-up: species or system Sus scrofa
[5] = Toxicity in Gambusia affinis; assay type: organism-based; settings: in vivo
[6] = Toxicity in Artemia salina; assay type: organism-based; settings: in vivo
[7] = target: T2, Phospholipase A2, membrane associated (Rattus norvegicus, UniProt P14423); assay: Inhibition of rat air pouch group2 sPLA2 by liquid scintillation counting
T2 sequence (P14423 whole entry): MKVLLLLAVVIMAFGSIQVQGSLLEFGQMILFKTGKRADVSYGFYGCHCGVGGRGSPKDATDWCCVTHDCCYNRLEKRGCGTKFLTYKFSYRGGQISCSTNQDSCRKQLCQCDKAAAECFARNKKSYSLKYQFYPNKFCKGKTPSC

Phospholipase A2 = target: T3, Phospholipase A2 (Apis mellifera, UniProt P00630); assay: Inhibition of bee venom group3 sPLA2 by liquid scintillation counting
T3 sequence (P00630 whole entry): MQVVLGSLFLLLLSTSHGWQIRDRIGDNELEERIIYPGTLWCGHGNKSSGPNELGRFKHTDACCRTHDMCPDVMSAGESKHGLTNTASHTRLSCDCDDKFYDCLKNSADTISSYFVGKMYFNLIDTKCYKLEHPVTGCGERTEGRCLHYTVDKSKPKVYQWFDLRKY

Structure (SMILES)	Activity [1]	IC50 [2] [µM]	IC50 [3] [µM]	IC50 [4] [µM]	LC50 [5] [µg/mL]	LC50 [6] [µg/mL]	IC50 [7] [µM]	IC50 (Phospholipase A2) [µM]
C=C1CCC[C@H]2[C@](C)(CCC3=CCC(C4=CC(=O)OC4O)OC3)[C@H](C)CC[C@]12C (stereo partly drawn) [CACOSPONGIONOLIDE B]	Not Active	4.3	64.2	4				
CC1=C(CC/C(C)=C/CCC2=CC[C@H](C3=CC(=O)O[C@H]3O)O[C@H]2O)C(C)(C)CCC1 [MANOALIDE]	Not Active	3.9	32.3					
CC1=CCC[C@@H]2[C@@](C)(CCC3=CC[C@H](C4=CC(=O)O[C@H]4O)OC3)[C@@H](C)CC[C@@]12C [CACOSPONGIONOLIDE E]	Not Active	1.4	5.3		1.01 (≈ 2.52 µM)	1.29 (≈ 3.22 µM)	7.8	2.8
C[C@H]1CC[C@@]23C[C@]2(C)CCC[C@@H]3[C@@]1(C)CCC1=CC[C@H](C2=CC(=O)O[C@H]2O)OC1 [CACOSPONGIONOLIDE]	Not Active	3	14.4					2.3
